According to paper PMC7255801, “Disease-associated mutations in the human TRPM3 render the channel overactive via two distinct mechanisms” (eLife, 2020):

Target: T1, wild-type hTRPM3_1325 (Homo sapiens, UniProt Q9HCF6)
T1 construct: expressed in transfected cells; host or cells: Xenopus laevis oocytes (cRNA injection)
T1 sequence (Q9HCF6 1-1325 isoform Q9HCF6-10): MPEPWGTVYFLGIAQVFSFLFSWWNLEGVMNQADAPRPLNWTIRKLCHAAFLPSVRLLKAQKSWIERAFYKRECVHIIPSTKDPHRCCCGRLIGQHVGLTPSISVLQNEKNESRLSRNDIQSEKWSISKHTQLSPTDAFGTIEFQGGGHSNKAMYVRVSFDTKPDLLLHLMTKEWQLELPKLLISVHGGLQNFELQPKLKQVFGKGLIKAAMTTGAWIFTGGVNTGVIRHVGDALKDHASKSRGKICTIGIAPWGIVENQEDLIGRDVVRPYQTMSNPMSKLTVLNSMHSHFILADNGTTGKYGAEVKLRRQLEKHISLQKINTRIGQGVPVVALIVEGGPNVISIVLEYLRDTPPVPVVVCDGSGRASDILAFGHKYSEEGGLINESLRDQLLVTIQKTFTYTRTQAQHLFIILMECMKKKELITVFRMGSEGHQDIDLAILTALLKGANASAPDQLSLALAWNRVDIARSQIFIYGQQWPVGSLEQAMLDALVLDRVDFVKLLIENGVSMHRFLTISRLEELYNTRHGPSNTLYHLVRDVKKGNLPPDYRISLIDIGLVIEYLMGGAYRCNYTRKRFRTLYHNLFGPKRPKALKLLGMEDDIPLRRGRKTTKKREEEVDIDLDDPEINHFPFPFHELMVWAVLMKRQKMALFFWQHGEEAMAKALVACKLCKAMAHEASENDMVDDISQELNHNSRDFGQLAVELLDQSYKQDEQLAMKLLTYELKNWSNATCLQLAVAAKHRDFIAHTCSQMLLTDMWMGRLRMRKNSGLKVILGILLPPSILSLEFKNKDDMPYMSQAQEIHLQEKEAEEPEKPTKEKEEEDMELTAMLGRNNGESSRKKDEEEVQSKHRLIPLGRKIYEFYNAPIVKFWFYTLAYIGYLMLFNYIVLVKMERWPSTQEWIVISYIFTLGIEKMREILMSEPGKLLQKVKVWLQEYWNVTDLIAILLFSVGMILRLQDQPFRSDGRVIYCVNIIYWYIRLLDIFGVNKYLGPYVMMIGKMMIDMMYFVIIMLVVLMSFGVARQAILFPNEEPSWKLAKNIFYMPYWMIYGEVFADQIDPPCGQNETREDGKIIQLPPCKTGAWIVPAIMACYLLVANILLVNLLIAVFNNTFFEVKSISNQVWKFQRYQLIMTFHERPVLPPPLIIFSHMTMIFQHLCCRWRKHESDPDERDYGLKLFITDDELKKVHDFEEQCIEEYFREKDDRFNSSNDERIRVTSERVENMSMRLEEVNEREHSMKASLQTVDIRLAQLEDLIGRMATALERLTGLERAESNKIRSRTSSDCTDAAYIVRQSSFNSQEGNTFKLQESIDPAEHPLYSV
Assay: Two electrode voltage clamp in Xenopus oocytes, wild type channel
Format: cell-based
Settings: wild type TRPM3, 50 μM, room temperature (20–22°C)
Procedure: Xenopus laevis oocytes were prepared as described earlier ([Badheka et al., 2015]). All animal procedures were approved by the Institutional Animal Care and Use Committee at Rutgers New Jersey Medical School. In brief, frogs were anesthetized in 0.25% ethyl 3-aminobenzoate methanesulfonate solution (MS222; Sigma-Aldrich); bags of ovaries were removed surgically from the anesthetized frogs. Individual oocytes were obtained by overnight digestion at 16°C in 0.2–0.3 mg/ml type 1A collagenase (Sigma-Aldrich), dissolved in a solution containing 82.5 mM NaCl, 2 mM KCl, 1 mM MgCl2, and […] HEPES, pH 7.4 (OR2 solution). The next day the collagenase containing solution was discarded and the oocytes were washed multiple times with OR2 solution. […]
Two electrode voltage clamp experiments were performed as described ([Badheka et al., 2015]). In brief, oocytes were placed in extracellular solution (97 mM NaCl, 2 mM KCl, 1 mM MgCl2, and […] HEPES, pH 7.4), and currents were recorded with thin-wall inner filament– containing glass pipettes (World Precision Instruments) filled with 3 M KCl in 1% agarose. Currents were measured with a ramp protocol from −100 to 100 mV once every 0.5 s with a GeneClamp 500B amplifier and analyzed with the pClamp 9.0 software (Molecular Devices). […]

## CCC1(c2ccccc2)C(=O)NCNC1=O [primidone]
  Inhibition of basal current: small reduction
